Experimental data published in PMC3751085, “A simple methodology to assess endolysosomal protease activity involved in antigen processing in human primary cells” (BMC Cell Biology, 2013).
Like-named read-outs stand apart in the source and are kept apart here.

What was measured:
[1] = not given; remark: listed apart in the source
[2] = Peptide degradation assay in purified cytosol from PBMC; type: in vitro ADME; conditions: human, s9, amount equivalent to endolysosomes (same number of cells), 8 nM peptide in degradation buffer (20 mM HEPES, 1 mM MgCl2, 137 mM K acetate, 1 mM ATP), 37°C, % original peptide remaining by RP-HPLC, representative of two replicates
From the text: The percentage of acid phosphatase activity in each fraction was used to determine the number of cells that yielded endolysosomes in each fraction. […] The disappearance of the peptide was monitored by RP-HPLC, where the amount of peptide is proportional to the surface area under its peak.
(§1) Endolysosomes were purified from crude PBMC lysate by differential centrifugation. PBMCs were isolated from human buffy coats using Ficoll centrifugation [29]. Cells resuspended in extraction buffer at a concentration of 5 × 10^8 cells/ml [30] were lysed using glass beads as in a previous study done in our laboratory [31]. The cell lysate was centrifuged at 1000g for 10 min at 4°C. The supernatant was transferred to a new tube and centrifuged at 20,000 g for 20 min at 4°C. The resulting pellet consists of endoplasmic reticulum, mitochondria and endolysosomes. The supernatant corresponds to purified cytosolic fraction. […] 120 μl fractions were collected and further analyzed for endolysosomal enrichment.
In studies involving purified endolysosome, an acid phosphatase assay was performed on the fractions and the amount of acid phosphatase activity was used to calculate the total number of cells from which each fraction was derived. […] Another 50 μl of the degradation buffer was added to each sample and the amount of peptide remaining was analyzed by RP-HPLC.

[3] = human, cells or culture medium
From the text: The percentage of acid phosphatase activity in each fraction was used to determine the number of cells that yielded endolysosomes in each fraction. […] The disappearance of the peptide was monitored by RP-HPLC, where the amount of peptide is proportional to the surface area under its peak. Upon degradation the peak area reduced and additional peaks corresponding to degradation products appeared [15].
(§2) We performed a degradation assay as mentioned in Figure 1 and analyzed the peptide fragments produced by mass spectrometry. We compared the degradation of a longer HIV peptide relevant to antigen processing and peptide-based immunogens with crude lysate and purified endolysosomes at pH 5.5 (late endosomal pH) and 4.0 (lysosomal pH) [26]. […] The products of the degradation after a 60-minute incubation with either crude lysate or purified endolysosomes at pH 4.0 and 5.5 were identified by mass spectrometry. […] We compared by mass spectrometry the identity and corresponding peak sirface intensities of all peptides produced in purified endolysosomes and in crude lysate at pH 4 and 5.5 (Additional file 3: Figure S3A).
as §1
The assay is adapted from previously published studies from our laboratory [31]. […] Another 50 μl of the degradation buffer was added to each sample and the amount of peptide remaining was analyzed by RP-HPLC.

[4] = in vitro; conditions: human, cells or culture medium, pH 4
Method: These degradation assays were performed in the presence of cathepsin inhibitors to identify specific cathepsins that played a role in antigen processing. […] The products of peptide degradation after 0, 10, 30 and 60 minutes of the reaction were analyzed by RP-HPLC and the percentage of remaining original peptide was quantified from the area under peak (Figure 3A). To rule out any effect of acidic pH on the peptides, the peptide was incubated for the same amount of time with the reaction buffer without any crude lysate and the peptide was quantified by RP-HPLC (Figure 3B). As mentioned in Figure 1D, a half-life of the peptide in the presence or absence of cathepsin can be calculated. […] Therefore, on fitting a one-phase exponential decay curve, we calculated the stability rate of the peptide at each pH (Figure 3C). […] The stability rate of the peptide without inhibitor was assigned a value of one and the fold change in the stability rate in the presence of inhibitors was calculated. […] The experiment was repeated using PBMC lysate from three different healthy donors and the average of three results are shown in Figure 3C.
as §2
8 nM of peptide was incubated with 30 μg of crude PBMC lysate in 250 μl of degradation buffer (20 mM HEPES, 1 mM magnesium chloride, 137 mM potassium acetate, 1 mM ATP) that was adjusted to the appropriate pH. In studies involving purified endolysosome, an acid phosphatase assay was performed on the fractions and the amount of acid phosphatase activity was used to calculate the total number of cells from which each fraction was derived. Using this approach, equivalent amount of cytosol and endolysosome that were derived from the same number of cells were used in peptide degradation assays. […] When using inhibitors, the compound was added to the crude lysate before addition of the peptide and incubated at room temperature for 30 minutes. […] Another 50 μl of the degradation buffer was added to each sample and the amount of peptide remaining was analyzed by RP-HPLC. […]

Molecule | number of peptide fragments identified after degradation in endolysosomes (pH 4) [peptides] | fragments of the crude lysate degradation similar to those produced in endolysosomes, pH 4.0 ([1]; pH 4) [%] | number of peptide fragments identified after degradation in crude lysate ([1]; pH 4) [peptides] | fragments of the crude lysate degradation similar to the endolysosomal fraction, pH 5.5 ([1]; pH 5.5) [%] | half-life at 8 nM [2] [min] | half-life [3] [min] | half-life of the peptide in endolysosomes at pH 4.0 (purified endolysosomes, pH 4.0, 37°C, RP-HPLC, data not shown) [min] | half-life [4] [min]
KVVEEKAFSPEVIPMFAAL [5-KF11-3] | 39 | 84.75 | 32 | 76.2 | – | – | – | –
CC[C@H](C)[C@H](NC(=O)[C@@H](NC(=O)[C@H](CCC(=O)O)NC(=O)[C@@H]1CCCN1C(=O)[C@H](CO)NC(=O)[C@H](Cc1ccccc1)NC(=O)[C@H](C)NC(=O)[C@@H](N)CCCCN)C(C)C)C(=O)N1CCC[C@H]1C(=O)N[C@@H](CCSC)C(=O)N[C@@H](Cc1ccccc1)C(=O)O [B57KF11] | – | – | – | – | 36 | 8 | 8 | 6
